According to article PMC6956045 (Pharmaceutics, 2019):
Converted amounts (≈) assume the structure as drawn.

How the values were obtained:
[1] = Bulk phase partition coefficient n-octanol/phosphate buffer; type: physicochemical; conditions: pH 6.8, read-out: n-Octanol partition coefficient P (converted)
Method: The partition coefficient was calculated as the ratio between octanol concentration and the aqueous concentration. Three replicates were done to determine the average value.
Partition coefficients can be used as an index to provisionally classify compounds in terms of permeability.

[2] = cited from earlier work
[3] = Solubility assay: saturation shake-flask method; type: physicochemical; conditions: for solubility at 8 h: thermodynamic from solid, 37 °C, shake-flask
Method: The solubility assays were performed according to the World Health Organization (WHO) guidelines protocols. […] A sample concentration was determined using high-performance liquid chromatography (HPLC) with ultraviolet (UV) detection.

Caco-2 cell monolayers = test: Permeability assay: Caco-2 transport studies; type: in vitro ADME
Method: Caco-2 cells were grown in a polycarbonate membrane. To reach the confluence, 250,000 cells/cm^2 were seeded in six Transwell plates and […] for 19–22 days with Dubelcco’s Modified Eagle’s Media, with 1% L-glutamine, 10% fetal bovine serum, and 1% penicillin/streptomycin, at 37 °C temperature, 90% relative humidity, and 5% CO2.
The confluence of the cells was tested by measuring the transepithelial electrical resistance (TEER). Permeability studies were conducted with an orbital shaking (50 rpm) and with pH 7.0 in both chambers. Standard protocols were described and validated previously in our laboratory. Four samples of 200 µL were taken and replaced with a fresh buffer from the receiver side at 15, 30, 45, and 90 min.
Permeability studies were performed in both directions: apical-to-basal (A-to-B) and basal-to-apical (B-to-A).
The apparent permeability coefficient was calculated according the following equation:(1) Creceiver,t=Qtotal/Vreceiver+Vdonor+((Creceiver,t−1·f)−Qtotal/Vreceiver+Vdonor)·e^−Peff 0,1·S·(1/Vreceiver+1/Vdonor)·Δt where Creceiver,t is the drug concentration in the receiver chamber at time t, Qtotal is the total amount of drug in both chambers, Vreceiver and Vdonor are the volumes of each chamber, Creceiver,t−1 is the drug concentration in the receiver chamber at the previous time, f is the sample replacement dilution factor, S is the surface area of the monolayer, Δt is the time interval, and Peff is the permeability coefficient as was described by Mangas-Sanjuan et al..
Experiments in the presence of the formulation excipients were done by dissolving a formulation tablet in 250 mL of buffer and filtrating the obtained dispersion to eliminate nonsoluble excipients.

[4] = cited from earlier work; remark: listed apart in the source

SMILES | logD [1] | Solubility in chloroform [2] | Solubility in water, methanol and acetonitrile [2] | Solubility classification [3] | solubility at 8 h ([3]; buffer solution pH 1.2, aqueous buffer, pH 1.2 buffer) | solubility at 8 h ([3]; buffer solution pH 4.5, aqueous buffer, pH 4.5 buffer) | solubility at 8 h ([3]; buffer solution pH 6.8, aqueous buffer, pH 6.8 buffer) | Volume in which the highest strength/dose (40 mg) would be soluble ([3]; pH 1.2) | Concentration dependence of permeability (Caco-2 cell monolayers; Caco-2, 50-1000 μM) | Permeability compared with metoprolol (Caco-2 cell monolayers; Caco-2, pH 7.0 both chambers, drug in solution) | Permeability in the presence of sodium azide (Caco-2 cell monolayers; Caco-2, passive diffusion permeability, transporter contribution nullified) | log P [2] | pKa [2] | First-pass hepatic effect (of the absorbed drug) [4] | Intestinal absorption (of dose administered) [4]
COCCc1ccc(OCC(O)CNC(C)C)cc1 (stereo not shown) [Metoprolol] | -0.638 | – | – | – | – | – | – | – | – | – | – | – | – | – | –
CC[C@H](C)C(=O)O[C@H]1C[C@H](O)C=C2C=C[C@H](C)[C@H](CC[C@@H](O)C[C@@H](O)CC(=O)O)[C@H]21 [Pravastatin sodium] | – | practically insoluble | easily soluble | – | – | – | – | – | – | – | – | – | – | – | –
CC[C@H](C)C(=O)O[C@H]1C[C@H](O)C=C2C=C[C@H](C)[C@H](CC[C@@H](O)C[C@@H](O)CC(=O)O)[C@H]21 [Pravastatin] | -0.155 | – | – | highly soluble | 440 ± 17.4 mg/mL (≈ 1040 mM) | 504 ± 24.2 mg/mL (≈ 1190 mM) | 480 ± 17.4 mg/mL (≈ 1130 mM) | 0.09 mL | permeability increased at higher concentrations | lower than that of metoprolol | as high as metoprolol permeability | 1.65 | 4.21 | 66% | 34%
